≈ marks a conversion by molar mass, not a printed value.
Tests used:
Salmonella choleraesuis [1] = assay: In vivo protection of mice infected intraperitoneally with Salmonella choleraesuis; details: multiple dosing, 25 mg./kg., percentage of animals which survive; for Percentage protection Sal. choleraesuis SC: subcutaneous (SC)
Experimental: (§1) In determining the in vivo activity of the compounds of the invention, the test compound is administered to mice which have been infected by intraperitoneal injection of a lethal inoculum of pathogenic bacteria. The test compound is administered using a multiple dosing regimen, using either the oral (PO) or the subcutaneous (SC) route. The inoculum of bacteria varies from one to about ten times the amount needed to kill 100% of the mice, under the conditions of the test. At the end of the test, the activity of a compound is assessed by counting the number of survivors among the treated animals, and expressing the activity of a compound as the percentage of animals which survive. In Table I, in vivo activities of several of the compounds of this invention against Salmonella choleraesuis and Pasteurella multocida are presented. | *The dosage of test compound in the protection studies using Salmonnella | choleraesuis was 25 mg./kg. of body weight, and using Pasteurella | multocida it was 50 mg./kg. of body weight.

Salmonella choleraesuis [2] = assay: In vitro MIC, two-fold serial dilution in Brain-Heart Infusion Broth, Salmonella choleraesuis; details: Salmonella enterica, read-out: MIC (minimum inhibitory concentration) Sal. choleraesuis
Streptococcus pyogenes = assay: In vitro MIC, two-fold serial dilution in Brain-Heart Infusion Broth, Streptococcus pyogenes; details: read-out: MIC (minimum inhibitory concentration) Strep. pyogenes
Escherichia coli = assay: In vitro MIC, two-fold serial dilution in Brain-Heart Infusion Broth, Escherichia coli; details: read-out: MIC (minimum inhibitory concentration) Esch. coli
Pasteurella multocida [3] = assay: In vitro MIC, two-fold serial dilution in Brain-Heart Infusion Broth, Pasteurella multocida; details: read-out: MIC (minimum inhibitory concentration) Past. multocida
Treponema hyodysenteriae = assay: In vitro MIC, two-fold serial dilution in Brain-Heart Infusion Broth, Treponema hyodysenteriae; details: Brachyspira hyodysenteriae, read-out: MIC (minimum inhibitory concentration) Trep. hyodysenteriae
Pasteurella multocida [4] = assay: In vivo protection of mice infected intraperitoneally with Pasteurella multocida; details: multiple dosing, 50 mg./kg., percentage of animals which survive; for Percentage protection Past. multocida SC: subcutaneous (SC)
Experimental: as §1

| SMILES | Percentage protection Sal. choleraesuis PO (Salmonella choleraesuis [1]) [%] | Percentage protection Sal. choleraesuis SC (Salmonella choleraesuis [1]) [%] | MIC (Salmonella choleraesuis [2]) [µg/mL] | MIC (Streptococcus pyogenes) [µg/mL] | MIC (Escherichia coli) [µg/mL] | MIC (Pasteurella multocida [3]) [µg/mL] | MIC (Treponema hyodysenteriae) [µg/mL] | Percentage protection Past. multocida PO (Pasteurella multocida [4]) [%] | Percentage protection Past. multocida SC (Pasteurella multocida [4]) [%] |
| --- | --- | --- | --- | --- | --- | --- | --- | --- | --- |
| CC1(OCc2ccccc2)OCc2c1[n+]([O-])c1ccccc1[n+]2[O-] (centres unmarked) [1-Benzyloxy-1-methyl-1,3-dihydrofuro[3,4-b]quinoxaline 4,9-Dioxide] | 40 | 60 | 12.5 (≈ 38.5 µM) | 6.25 (≈ 19.3 µM) | 12.5 (≈ 38.5 µM) | 3.12 (≈ 9.62 µM) | – | – | – |
| CCOC1(C)OCc2c1[n+]([O-])c1ccccc1[n+]2[O-] (centres unmarked) [1-Ethoxy-1-methyl-1,3-dihydrofuro[3,4-b]quinoxaline 4,9-Dioxide] | 70 | 50 | 12.5 (≈ 47.7 µM) | 3.12 (≈ 11.9 µM) | 12.5 (≈ 47.7 µM) | 12.5 (≈ 47.7 µM) | – | – | – |
| CC1(O)OCc2c1[n+]([O-])c1ccccc1[n+]2[O-] (centres unmarked) [1-Hydroxy-1-methyl-1,3-dihydrofuro[3,4-b]quinoxaline 4,9-dioxide] | 100 | 100 | 1.56 (≈ 6.66 µM) | 0.78 (≈ 3.33 µM) | 1.56 (≈ 6.66 µM) | 12.5 (≈ 53.4 µM) | 0.09 (≈ 0.384 µM) | 100 | 100 |
| COC1(C)OCc2c1[n+]([O-])c1ccccc1[n+]2[O-] (centres unmarked) [1-Methoxy-1-methyl-1,3-dihydrofuro[3,4-b]quinoxaline 4,9-Dioxide] | 100 | 100 | 1.56 (≈ 6.28 µM) | 0.78 (≈ 3.14 µM) | 3.12 (≈ 12.6 µM) | 3.12 (≈ 12.6 µM) | – | 90 | 100 |
